Experimental data from ChEMBL document CHEMBL2203107, “Microwave-assisted synthesis and in vitro antibacterial activity of novel steroidal thiosemicarbazone derivatives” (Bioorg Med Chem Lett, 2012).
In brackets after ≈: the same amount, converted by molar mass.

Key:
Pseudomonas aeruginosa = test: Antibacterial activity against Pseudomonas aeruginosa after 18 hrs by macrodilution method; assay type: functional
Bacillus subtilis = test: Antibacterial activity against Bacillus subtilis after 18 hrs by macrodilution method; assay type: functional
Staphylococcus aureus [1] = test: Antibacterial activity against Staphylococcus aureus after 18 hrs by macrodilution method; assay type: functional
Staphylococcus aureus [2] = test: Antibacterial activity against Staphylococcus aureus; assay type: functional, organism-based

MIC (Pseudomonas aeruginosa) [µg/mL] | MIC (Bacillus subtilis) [µg/mL] | MIC (Staphylococcus aureus [1]) [µg/mL] | IC50 (Staphylococcus aureus [2]) [µg/mL] | SMILES
4 (≈ 5.26 µM) | 128 (≈ 168 µM) | 32 (≈ 42 µM) | – | COC(=O)CC[C@@H](C)[C@H]1CC[C@H]2[C@@H]3C/C(=N/NC(=S)Nc4ccc(OC)cc4)[C@@H]4C/C(=N/NC(=S)Nc5ccc(OC)cc5)CC[C@]4(C)[C@H]3CC[C@]12C
16 (≈ 28.3 µM) | 32 (≈ 56.6 µM) | > 128 | – | COC(=O)CC[C@@H](C)[C@H]1CC[C@H]2[C@@H]3C(=O)C[C@@H]4C/C(=N/NC(=S)Nc5ccc(C)cc5)CC[C@]4(C)[C@H]3CC[C@]12C
128 (≈ 174 µM) | 128 (≈ 174 µM) | 32 (≈ 43.4 µM) | – | COC(=O)CC[C@@H](C)[C@H]1CC[C@H]2[C@@H]3C/C(=N/NC(=S)Nc4cccc(F)c4)[C@@H]4C/C(=N/NC(=S)Nc5cccc(F)c5)CC[C@]4(C)[C@H]3CC[C@]12C
128 (≈ 225 µM) | 128 (≈ 225 µM) | 128 (≈ 225 µM) | – | COC(=O)CC[C@@H](C)[C@H]1CC[C@H]2[C@@H]3C(=O)C[C@@H]4C/C(=N/NC(=S)Nc5ccc(F)cc5)CC[C@]4(C)[C@H]3CC[C@]12C
2 (≈ 2.33 µM) | 128 (≈ 149 µM) | 64 (≈ 74.5 µM) | – | COC(=O)CC[C@@H](C)[C@H]1CC[C@H]2[C@@H]3C/C(=N/NC(=S)Nc4ccc(Br)cc4)[C@@H]4C/C(=N/NC(=S)Nc5ccc(Br)cc5)CC[C@]4(C)[C@H]3CC[C@]12C
4 (≈ 5.26 µM) | > 128 | 64 (≈ 84.1 µM) | 3.25 (≈ 4.27 µM) | COC(=O)CC[C@@H](C)[C@H]1CC[C@H]2[C@@H]3/C(=N/NC(=S)Nc4ccc(OC)cc4)C[C@@H]4C/C(=N/NC(=S)Nc5ccc(OC)cc5)CC[C@]4(C)[C@H]3CC[C@]12C
32 (≈ 43.4 µM) | 8 (≈ 10.9 µM) | 8 (≈ 10.9 µM) | 1.02 (≈ 1.38 µM) | COC(=O)CC[C@@H](C)[C@H]1CC[C@H]2[C@@H]3/C(=N/NC(=S)Nc4cccc(F)c4)C[C@@H]4C/C(=N/NC(=S)Nc5cccc(F)c5)CC[C@]4(C)[C@H]3CC[C@]12C
2 (≈ 3.17 µM) | > 128 | > 128 | – | COC(=O)CC[C@@H](C)[C@H]1CC[C@H]2[C@@H]3CC[C@@H]4C/C(=N/NC(=S)Nc5ccc(Br)cc5)CC[C@]4(C)[C@H]3CC(=O)[C@]12C
32 (≈ 58 µM) | 64 (≈ 116 µM) | > 128 | – | COC(=O)CC[C@@H](C)[C@H]1CC[C@H]2[C@@H]3CC[C@@H]4C/C(=N/NC(=S)Nc5ccccc5)CC[C@]4(C)[C@H]3CC(=O)[C@]12C
8 (≈ 11.4 µM) | 128 (≈ 183 µM) | > 128 | – | COC(=O)CC[C@@H](C)[C@H]1CC[C@H]2[C@@H]3/C(=N/NC(=S)Nc4ccccc4)C[C@@H]4C/C(=N/NC(=S)Nc5ccccc5)CC[C@]4(C)[C@H]3CC[C@]12C
4 (≈ 7.02 µM) | > 128 | > 128 | – | COC(=O)CC[C@@H](C)[C@H]1CC[C@H]2[C@@H]3CC[C@@H]4C/C(=N/NC(=S)Nc5ccc(F)cc5)CC[C@]4(C)[C@H]3CC(=O)[C@]12C
2 (≈ 3.44 µM) | > 128 | > 128 | – | COC(=O)CC[C@@H](C)[C@H]1CC[C@H]2[C@@H]3CC[C@@H]4C/C(=N/NC(=S)Nc5ccc(OC)cc5)CC[C@]4(C)[C@H]3CC(=O)[C@]12C
4 (≈ 5.49 µM) | 128 (≈ 176 µM) | 128 (≈ 176 µM) | – | COC(=O)CC[C@@H](C)[C@H]1CC[C@H]2[C@@H]3C/C(=N/NC(=S)Nc4ccc(C)cc4)[C@@H]4C/C(=N/NC(=S)Nc5ccc(C)cc5)CC[C@]4(C)[C@H]3CC[C@]12C
128 (≈ 220 µM) | 32 (≈ 55 µM) | 128 (≈ 220 µM) | – | COC(=O)CC[C@@H](C)[C@H]1CC[C@H]2[C@@H]3C(=O)C[C@@H]4C/C(=N/NC(=S)Nc5ccc(OC)cc5)CC[C@]4(C)[C@H]3CC[C@]12C
16 (≈ 18.6 µM) | > 128 | 32 (≈ 37.3 µM) | 2.85 (≈ 3.32 µM) | COC(=O)CC[C@@H](C)[C@H]1CC[C@H]2[C@@H]3/C(=N/NC(=S)Nc4ccc(Br)cc4)C[C@@H]4C/C(=N/NC(=S)Nc5ccc(Br)cc5)CC[C@]4(C)[C@H]3CC[C@]12C
16 (≈ 26.6 µM) | 32 (≈ 53.2 µM) | > 128 | – | COC(=O)CC[C@@H](C)[C@H]1CC[C@H]2[C@@H]3C(=O)C[C@@H]4C/C(=N/NC(=S)Nc5cccc6ccccc56)CC[C@]4(C)[C@H]3CC[C@]12C

SMILES | MIC (Pseudomonas aeruginosa) [µg/mL] | MIC (Bacillus subtilis) [µg/mL] | MIC (Staphylococcus aureus [1]) [µg/mL] | IC50 (Staphylococcus aureus [2]) [µg/mL]
CC1(C)S[C@@H]2[C@H](NC(=O)[C@H](N)c3ccc(O)cc3)C(=O)N2[C@H]1C(=O)O [AMOXICILLIN] | 2 (≈ 5.47 µM) | 16 (≈ 43.8 µM) | 32 (≈ 87.6 µM) | 2.84 (≈ 7.77 µM)
